For orientation: Kd means the constant that tells how readily two partners part at equilibrium.

The source of these data is ChEMBL document CHEMBL5370652, “Ligand Sulfur Oxidation State Progressively Alters Galectin-3-Ligand Complex Conformations To Induce Affinity-Influencing Hydrogen Bonds” (J Med Chem, 2023).

Assay [1] deals with T1, Galectin-3 (Homo sapiens, UniProt P17931). The assay can be described thus: Binding affinity to wild type Galectin-3 (unknown origin) assessed as dissociation constant by fluorescence polarization assay.
T1 sequence (P17931 whole entry): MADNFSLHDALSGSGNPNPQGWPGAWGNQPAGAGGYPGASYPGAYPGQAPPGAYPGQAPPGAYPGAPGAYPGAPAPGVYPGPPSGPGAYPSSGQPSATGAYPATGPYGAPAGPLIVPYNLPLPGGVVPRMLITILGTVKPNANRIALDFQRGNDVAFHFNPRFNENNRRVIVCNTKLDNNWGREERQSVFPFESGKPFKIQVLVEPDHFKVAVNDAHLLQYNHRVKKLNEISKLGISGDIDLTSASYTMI
The target of assay [2] is T1, Galectin-3.
Description: Binding affinity to Galectin-3 (unknown origin) assessed as change in enthalpy by isothermal titration calorimetry analysis
Assay [3] addresses T1, Galectin-3. This is another data set of the same source.
Description: Binding affinity to Galectin-3 (unknown origin) assessed as gibbs free energy change by isothermal titration calorimetry analysis
Assay [4] deals with T1, Galectin-3. Description: Binding affinity to Galectin-3 (unknown origin) assessed as dissociation constant by fluorescence polarization assay.
For assay [5], the target named is T1, Galectin-3. The source holds these as a separate data set.
Description: Binding affinity to Galectin-3 (unknown origin) assessed as change in entropy by isothermal titration calorimetry analysis

Structures are written as SMILES.

With `Cc1ccc(S[C@@H]2O[C@H](CO)[C@H](O)[C@H](n3cc(S(=O)(=O)c4ccccc4)nn3)[C@H]2O)cc1`, the Kd in assay [1] was determined as 79 µM.
For `[O-][S+](c1ccccc1)c1cn([C@H]2[C@@H](O)[C@@H](CO)O[C@@H](S[C@@H]3O[C@H](CO)[C@@H](O)[C@H](O)[C@H]3O)[C@@H]2O)nn1` (stereo not given in full), in assay [2], the deltaH was -6.17 kcal/mol. In addition, the deltaG in assay [3] is -5.55 kcal/mol. In assay [4], the dissociation constant Kd was found to be 55.5 µM. In addition, the -TdeltaS in assay [5] amounted to 0.62 kcal/mol.
